{"source": "ChEMBL document CHEMBL1201862", "about": "“PubChem BioAssay data set” (2004)", "assay_in_all_cases": "NCI tumour cell line growth inhibition, 48 h", "key": {"OVCAR-3": {"tested_on": "OVCAR-3"}, "SNB-19": {"tested_on": "SNB-19"}, "NCI/ADR-RES": {"tested_on": "NCI/ADR-RES"}, "PC-3": {"tested_on": "PC-3"}, "MOLT-4": {"tested_on": "MOLT-4"}, "KM12": {"tested_on": "KM12"}, "CAKI-1": {"tested_on": "CAKI-1"}, "UO-31": {"tested_on": "UO-31"}, "TK-10": {"tested_on": "TK-10"}, "MDA-MB-435": {"tested_on": "MDA-MB-435"}, "HOP-62": {"tested_on": "HOP-62"}, "HOP-92": {"tested_on": "HOP-92"}, "HCT-116": {"tested_on": "HCT-116"}, "OVCAR-8": {"tested_on": "OVCAR-8"}, "EKVX": {"tested_on": "EKVX"}, "OVCAR-4": {"tested_on": "OVCAR-4"}, "SF-295": {"tested_on": "SF-295"}, "T47D": {"tested_on": "T47D"}, "CCRF-CEM": {"tested_on": "CCRF-CEM"}}, "note": "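Five concentrations, 48 hours, 96-well plates. GI50 = concentration required for 50% inhibition of growth.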 Active and inactive are the calls of the source. Cut-off read from the data, not from the text of the source: active = GI50 up to about 1.1 µM and inactive = higher.", "data": [{"smiles": "CCNCCC1(CC)C(=O)NC(=O)NC1=O", "values": [{"measurement": "GI50", "setting": "OVCAR-3", "value": "> 100 µM (inactive)"}, {"measurement": "GI50", "setting": "SNB-19", "value": "> 100 µM (inactive)"}, {"measurement": "GI50", "setting": "NCI/ADR-RES", "value": "> 100 µM (inactive)"}, {"measurement": "GI50", "setting": "PC-3", "value": "> 100 µM (inactive)"}, {"measurement": "GI50", "setting": "MOLT-4", "value": "> 100 µM (inactive)"}, {"measurement": "GI50", "setting": "KM12", "value": "> 100 µM (inactive)"}, {"measurement": "GI50", "setting": "CAKI-1", "value": "> 100 µM (inactive)"}, {"measurement": "GI50", "setting": "UO-31", "value": "> 100 µM (inactive)"}, {"measurement": "GI50", "setting": "TK-10", "value": "> 100 µM (inactive)"}, {"measurement": "GI50", "setting": "MDA-MB-435", "value": "> 100 µM (inactive)"}, {"measurement": "GI50", "setting": "HOP-62", "value": "> 100 µM (inactive)"}, {"measurement": "GI50", "setting": "HOP-92", "value": "> 100 µM (inactive)"}, {"measurement": "GI50", "setting": "HCT-116", "value": "> 100 µM (inactive)"}, {"measurement": "GI50", "setting": "OVCAR-8", "value": "> 100 µM (inactive)"}, {"measurement": "GI50", "setting": "EKVX", "value": "> 100 µM (inactive)"}, {"measurement": "GI50", "setting": "OVCAR-4", "value": "> 100 µM (inactive)"}, {"measurement": "GI50", "setting": "SF-295", "value": "> 100 µM (inactive)"}, {"measurement": "GI50", "setting": "T47D", "value": "> 100 µM (inactive)"}]}, {"smiles": "N#Cc1cc2c(cc1Cl)Sc1nnc(Nc3ccccc3)n1S2(=O)=O", "values": [{"measurement": "GI50", "setting": "OVCAR-3", "value": "1.64 µM (inactive)"}, {"measurement": "GI50", "setting": "SNB-19", "value": "2.3 µM (inactive)"}, {"measurement": "GI50", "setting": "NCI/ADR-RES", "value": "1.78 µM (inactive)"}, {"measurement": "GI50", "setting": "PC-3", "value": "1.74 µM (inactive)"}, {"measurement": "GI50", "setting": "MOLT-4", "value": "2.02 µM (inactive)"}, {"measurement": "GI50", "setting": "KM12", "value": "2.06 µM (inactive)"}, {"measurement": "GI50", "setting": "CAKI-1", "value": "1.72 µM (inactive)"}, {"measurement": "GI50", "setting": "CCRF-CEM", "value": "1.56 µM (inactive)"}, {"measurement": "GI50", "setting": "UO-31", "value": "1.78 µM (inactive)"}, {"measurement": "GI50", "setting": "TK-10", "value": "4.22 µM (inactive)"}, {"measurement": "GI50", "setting": "MDA-MB-435", "value": "2.08 µM (inactive)"}, {"measurement": "GI50", "setting": "HOP-62", "value": "1.57 µM (inactive)"}, {"measurement": "GI50", "setting": "HOP-92", "value": "0.798 µM (active)"}, {"measurement": "GI50", "setting": "HCT-116", "value": "2.04 µM (inactive)"}, {"measurement": "GI50", "setting": "OVCAR-8", "value": "2 µM (inactive)"}, {"measurement": "GI50", "setting": "EKVX", "value": "2.77 µM (inactive)"}, {"measurement": "GI50", "setting": "OVCAR-4", "value": "2.68 µM (inactive)"}, {"measurement": "GI50", "setting": "SF-295", "value": "3 µM (inactive)"}, {"measurement": "GI50", "setting": "T47D", "value": "2.29 µM (inactive)"}]}, {"smiles": "CCCCCCCCCc1cccc(N2C(N)=NC(N)=NC2(C)C)c1", "values": [{"measurement": "GI50", "setting": "OVCAR-3", "value": "0.0547 µM (active)"}, {"measurement": "GI50", "setting": "NCI/ADR-RES", "value": "4.62 µM (inactive)"}, {"measurement": "GI50", "setting": "PC-3", "value": "< 0.0184 µM (active)"}, {"measurement": "GI50", "setting": "MOLT-4", "value": "< 0.0273 µM (active)"}, {"measurement": "GI50", "setting": "KM12", "value": "0.0139 µM (active)"}, {"measurement": "GI50", "setting": "CAKI-1", "value": "0.293 µM (active)"}, {"measurement": "GI50", "setting": "CCRF-CEM", "value": "0.197 µM (active)"}, {"measurement": "GI50", "setting": "UO-31", "value": "1.93 µM (inactive)"}, {"measurement": "GI50", "setting": "TK-10", "value": "0.0304 µM (active)"}, {"measurement": "GI50", "setting": "MDA-MB-435", "value": "0.0165 µM (active)"}, {"measurement": "GI50", "setting": "HOP-62", "value": "< 0.0237 µM (active)"}, {"measurement": "GI50", "setting": "HOP-92", "value": "1.58 µM (inactive)"}, {"measurement": "GI50", "setting": "HCT-116", "value": "< 0.01 µM (active)"}, {"measurement": "GI50", "setting": "OVCAR-8", "value": "< 0.01 µM (active)"}, {"measurement": "GI50", "setting": "EKVX", "value": "< 0.0329 µM (active)"}, {"measurement": "GI50", "setting": "OVCAR-4", "value": "< 0.01 µM (active)"}, {"measurement": "GI50", "setting": "SF-295", "value": "0.0148 µM (active)"}, {"measurement": "GI50", "setting": "T47D", "value": "0.528 µM (active)"}]}, {"smiles": "Cc1cc([C@H](C#N)c2nc3ccccc3[nH]2)nc(Cl)n1", "values": [{"measurement": "GI50", "setting": "SNB-19", "value": "71.6 µM (inactive)"}, {"measurement": "GI50", "setting": "NCI/ADR-RES", "value": "30.1 µM (inactive)"}, {"measurement": "GI50", "setting": "PC-3", "value": "30.9 µM (inactive)"}, {"measurement": "GI50", "setting": "MOLT-4", "value": "> 100 µM (inactive)"}, {"measurement": "GI50", "setting": "KM12", "value": "14.9 µM (inactive)"}, {"measurement": "GI50", "setting": "CAKI-1", "value": "98.4 µM (inactive)"}, {"measurement": "GI50", "setting": "CCRF-CEM", "value": "30.8 µM (inactive)"}, {"measurement": "GI50", "setting": "UO-31", "value": "35.6 µM (inactive)"}, {"measurement": "GI50", "setting": "TK-10", "value": "61.1 µM (inactive)"}, {"measurement": "GI50", "setting": "MDA-MB-435", "value": "30.4 µM (inactive)"}, {"measurement": "GI50", "setting": "HOP-92", "value": "20.1 µM (inactive)"}, {"measurement": "GI50", "setting": "HCT-116", "value": "37.8 µM (inactive)"}, {"measurement": "GI50", "setting": "OVCAR-8", "value": "30.4 µM (inactive)"}, {"measurement": "GI50", "setting": "EKVX", "value": "62.2 µM (inactive)"}, {"measurement": "GI50", "setting": "OVCAR-4", "value": "40.4 µM (inactive)"}, {"measurement": "GI50", "setting": "SF-295", "value": "> 100 µM (inactive)"}, {"measurement": "GI50", "setting": "T47D", "value": "21.3 µM (inactive)"}]}, {"smiles": "CCN(CC)/C(=C\\Cl)Nc1ccccn1.[O-][Cl+3]([O-])([O-])O", "values": [{"measurement": "GI50", "setting": "OVCAR-3", "value": "> 100 µM (inactive)"}, {"measurement": "GI50", "setting": "SNB-19", "value": "> 100 µM (inactive)"}, {"measurement": "GI50", "setting": "MOLT-4", "value": "> 100 µM (inactive)"}, {"measurement": "GI50", "setting": "KM12", "value": "> 100 µM (inactive)"}, {"measurement": "GI50", "setting": "CAKI-1", "value": "> 100 µM (inactive)"}, {"measurement": "GI50", "setting": "CCRF-CEM", "value": "> 100 µM (inactive)"}, {"measurement": "GI50", "setting": "UO-31", "value": "> 100 µM (inactive)"}, {"measurement": "GI50", "setting": "TK-10", "value": "> 100 µM (inactive)"}, {"measurement": "GI50", "setting": "HOP-62", "value": "> 100 µM (inactive)"}, {"measurement": "GI50", "setting": "HOP-92", "value": "> 100 µM (inactive)"}, {"measurement": "GI50", "setting": "HCT-116", "value": "> 100 µM (inactive)"}, {"measurement": "GI50", "setting": "OVCAR-8", "value": "> 100 µM (inactive)"}, {"measurement": "GI50", "setting": "EKVX", "value": "> 100 µM (inactive)"}, {"measurement": "GI50", "setting": "OVCAR-4", "value": "> 100 µM (inactive)"}, {"measurement": "GI50", "setting": "SF-295", "value": "> 100 µM (inactive)"}]}, {"smiles": "COc1cc(C2c3cc(O)c(OC)cc3C3OCC2C3CO)ccc1O", "note": "(centres undefined)", "values": [{"measurement": "GI50", "setting": "OVCAR-3", "value": "> 100 µM (inactive)"}, {"measurement": "GI50", "setting": "SNB-19", "value": "> 100 µM (inactive)"}, {"measurement": "GI50", "setting": "NCI/ADR-RES", "value": "> 100 µM (inactive)"}, {"measurement": "GI50", "setting": "PC-3", "value": "> 100 µM (inactive)"}, {"measurement": "GI50", "setting": "MOLT-4", "value": "> 100 µM (inactive)"}, {"measurement": "GI50", "setting": "KM12", "value": "> 100 µM (inactive)"}, {"measurement": "GI50", "setting": "CAKI-1", "value": "> 100 µM (inactive)"}, {"measurement": "GI50", "setting": "UO-31", "value": "> 100 µM (inactive)"}, {"measurement": "GI50", "setting": "TK-10", "value": "> 100 µM (inactive)"}, {"measurement": "GI50", "setting": "MDA-MB-435", "value": "> 100 µM (inactive)"}, {"measurement": "GI50", "setting": "HOP-62", "value": "> 100 µM (inactive)"}, {"measurement": "GI50", "setting": "HOP-92", "value": "7.6 µM (inactive)"}, {"measurement": "GI50", "setting": "HCT-116", "value": "76.9 µM (inactive)"}, {"measurement": "GI50", "setting": "EKVX", "value": "> 100 µM (inactive)"}, {"measurement": "GI50", "setting": "OVCAR-4", "value": "> 100 µM (inactive)"}, {"measurement": "GI50", "setting": "SF-295", "value": "> 100 µM (inactive)"}, {"measurement": "GI50", "setting": "T47D", "value": "> 100 µM (inactive)"}]}]}
